Test results as given in paper PMC12669672, “Structural insights into selective and dual antagonism of EP2 and EP4 prostaglandin receptors” (The EMBO Journal, 2025).
Where “and” joins values, the source holds several entries; their conditions need not be identical. Equal values may be shown once. Read-outs that look alike come from different tables or passages of the source.

Legend:
Assay in all cases: GloSensor cAMP assay, antagonism of PGE2-induced cAMP
Assay type in all cases: cell-based
EP2 S86A = target: T1, EP2 S86A (Homo sapiens, UniProt P43116, S86A); details: TG6-129, S86A, single experiments 1st-3rd
T1 construct: The full-length EP2 or EP4 was cloned into the pcDNA3.1 vector; FLAG (N); expressed in transfected cells; host or cells: AD293 cells
In short: (§1)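 Read-out is GloSensor luminescence from AD293 cells co-expressing FLAG-tagged EP2 variant and GloSensor22F biosensor, transfected at a 1:1 plasmid ratio. Cells were plated at 4000 per well in CO2-independent medium containing 2% cAMP reagent, incubated 1 h at 37 °C, then read.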

EP2 S308A = target: T2, EP2 S308A (Homo sapiens, UniProt P43116, S308A); details: for cAMP activity (∆pIC50 from EP2 WT): TG6-129, S308A
T2 construct: The full-length EP2 or EP4 was cloned into the pcDNA3.1 vector; FLAG (N); expressed in transfected cells; host or cells: AD293 cells
In short: as §1

EP2 S305A = target: T3, EP2 S305A (Homo sapiens, UniProt P43116, S305A); details: for cAMP activity (∆pIC50 from EP2 WT): TG6-129, S305A
T3 construct: The full-length EP2 or EP4 was cloned into the pcDNA3.1 vector; FLAG (N); expressed in transfected cells; host or cells: AD293 cells
In short: as §1

EP2 M116A = target: T4, EP2 M116A (Homo sapiens, UniProt P43116, M116A); details: for cAMP activity (∆pIC50 from EP2 WT): TG6-129, M116A
T4 construct: The full-length EP2 or EP4 was cloned into the pcDNA3.1 vector; FLAG (N); expressed in transfected cells; host or cells: AD293 cells
In short: as §1

EP4 S319A = target: T5, EP4 S319A (Homo sapiens, UniProt P35408, S319A); details: for cAMP activity (∆pIC50 from EP4 WT): TG6-129, S319A
T5 construct: The full-length EP2 or EP4 was cloned into the pcDNA3.1 vector (Invitrogen), incorporating an N-terminal FLAG tag; expressed in transfected cells; host or cells: AD293

EP4 V72A = target: T6, EP4 V72A (Homo sapiens, UniProt P35408, V72A)
T6 construct: The full-length EP2 or EP4 was cloned into the pcDNA3.1 vector; FLAG (N); expressed in transfected cells; host or cells: AD293 cells

EP2 W186A = target: T7, EP2 W186A (Homo sapiens, UniProt P43116, W186A)
T7 construct: The full-length EP2 or EP4 was cloned into the pcDNA3.1 vector; FLAG (N); expressed in transfected cells; host or cells: AD293 cells
In short: as §1

[1] = 1 h, TG6-129 log([M]) -7, read-out: % cAMP activity (normalized to WT)
[2] = 1 h, TG6-129 log([M]) -10, read-out: % cAMP activity (normalized to WT)
[3] = 1 h, TG6-129 log([M]) -11, read-out: % cAMP activity (normalized to WT)
[4] = 1 h, TG6-129 log([M]) -6, read-out: % cAMP activity (normalized to WT)
[5] = 1 h, TG6-129 log([M]) -9, read-out: % cAMP activity (normalized to WT)
[6] = 1 h, TG6-129 log([M]) -12, read-out: % cAMP activity (normalized to WT)
[7] = 1 h, TG6-129 log([M]) -4.00, read-out: % cAMP activity (normalized to WT)
[8] = 1 h, TG6-129 log([M]) -4.70, read-out: % cAMP activity (normalized to WT)
[9] = 1 h, TG6-129 log([M]) -5.40, read-out: % cAMP activity (normalized to WT)
[10] = 1 h, TG6-129 log([M]) -6.10, read-out: % cAMP activity (normalized to WT)
[11] = 1 h, TG6-129 log([M]) -6.80, read-out: % cAMP activity (normalized to WT)
[12] = 1 h, TG6-129 log([M]) -7.49, read-out: % cAMP activity (normalized to WT)
[13] = 1 h, TG6-129 log([M]) -8.19, read-out: % cAMP activity (normalized to WT)
[14] = 1 h, TG6-129 log([M]) -8.89, read-out: % cAMP activity (normalized to WT)

T2 sequence (P43116 whole entry S308A): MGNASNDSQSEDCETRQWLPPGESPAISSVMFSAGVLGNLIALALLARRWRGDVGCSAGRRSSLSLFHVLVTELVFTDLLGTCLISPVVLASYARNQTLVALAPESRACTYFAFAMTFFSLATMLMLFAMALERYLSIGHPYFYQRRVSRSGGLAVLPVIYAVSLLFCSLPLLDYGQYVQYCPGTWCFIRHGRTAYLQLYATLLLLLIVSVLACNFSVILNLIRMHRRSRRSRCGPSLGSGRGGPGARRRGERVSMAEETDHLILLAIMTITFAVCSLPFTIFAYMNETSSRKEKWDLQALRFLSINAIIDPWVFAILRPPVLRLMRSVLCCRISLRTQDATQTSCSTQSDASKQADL
T4 sequence (P43116 whole entry M116A): as the sequence (P43116 whole entry S308A) above, with M116A, A308S counted along it
T1 sequence (P43116 whole entry S86A): as the sequence (P43116 whole entry S308A) above, with S86A, A308S counted along it
T6 sequence (P35408 whole entry V72A): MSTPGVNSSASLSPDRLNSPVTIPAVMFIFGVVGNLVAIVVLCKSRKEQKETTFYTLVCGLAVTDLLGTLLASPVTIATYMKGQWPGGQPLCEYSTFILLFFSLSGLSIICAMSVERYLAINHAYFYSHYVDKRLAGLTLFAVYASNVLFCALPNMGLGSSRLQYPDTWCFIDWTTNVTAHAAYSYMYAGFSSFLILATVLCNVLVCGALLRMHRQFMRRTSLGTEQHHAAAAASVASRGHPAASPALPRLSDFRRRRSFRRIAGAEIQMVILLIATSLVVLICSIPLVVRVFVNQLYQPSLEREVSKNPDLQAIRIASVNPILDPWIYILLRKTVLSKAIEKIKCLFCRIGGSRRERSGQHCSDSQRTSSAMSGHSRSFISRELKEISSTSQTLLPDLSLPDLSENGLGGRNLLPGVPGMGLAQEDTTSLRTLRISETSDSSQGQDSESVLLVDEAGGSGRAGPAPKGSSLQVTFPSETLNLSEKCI
T5 sequence (P35408 whole entry S319A): as the sequence (P35408 whole entry V72A) above, with A72V, S319A counted along it
T3 sequence (P43116 whole entry S305A): as the sequence (P43116 whole entry S308A) above, with S305A, A308S counted along it
T7 sequence (P43116 whole entry W186A): as the sequence (P43116 whole entry S308A) above, with W186A, A308S counted along it

CCc1nnc(NS(=O)(=O)c2ccc(NC(=S)NC(=O)/C=C/c3ccc(F)cc3)cc2)s1 [TG6-129]
cAMP activity (∆pIC50 from EP2 WT) (EP2 S86A): -0.638 and -0.681 and -0.823
IC50 (EP2 S308A): 209 nM
remaining activity at 0.1 µM (EP2 S308A; [1]): 80.3%
remaining activity at 0.0001 µM (EP2 S308A; [2]): 108%
remaining activity at 10 pM (EP2 S308A; [3]): 110%
cAMP activity (∆pIC50 from EP2 WT) (EP2 S308A; Mean): -0.534
cAMP activity (∆pIC50 from EP2 WT) (EP2 S308A; single experiments 1st-3rd): -0.496 and -0.568 and -0.537
IC50 (EP2 S305A): 28.8 nM
remaining activity at 1 µM (EP2 S305A; [4]): 9.02%
remaining activity at 0.1 µM (EP2 S305A; [1]): 12.5%
remaining activity at 0.001 µM (EP2 S305A; [5]): 44.8%
remaining activity at 10 pM (EP2 S305A; [3]): 67.8%
remaining activity at 1 pM (EP2 S305A; [6]): 54.8%
cAMP activity (∆pIC50 from EP2 WT) (EP2 S305A; Mean): 0.475
cAMP activity (∆pIC50 from EP2 WT) (EP2 S305A; single experiments 1st-3rd): 0.478 and 0.360 and 0.586
IC50 (EP2 M116A): 513 nM
cAMP activity (∆pIC50 from EP2 WT) (EP2 M116A; Mean): -0.947
cAMP activity (∆pIC50 from EP2 WT) (EP2 M116A; single experiments 1st-3rd): -0.910 and -0.955 and -0.975
IC50 (EP4 S319A): 20000 nM
remaining activity at 100 µM (EP4 S319A; [7]): 15.3%
remaining activity at […] (EP4 S319A; [8]): 26.4%
remaining activity at […] (EP4 S319A; [9]): 52.2%
remaining activity at […] (EP4 S319A; [10]): 50.8%
remaining activity at 0.1585 µM (EP4 S319A; [11]): 53.5%
remaining activity at 0.03236 µM (EP4 S319A; [12]): 57.1%
remaining activity at 0.006457 µM (EP4 S319A; [13]): 56.3%
remaining activity at 0.001288 µM (EP4 S319A; [14]): 49.4%
cAMP activity (∆pIC50 from EP4 WT) (EP4 S319A; Mean): -0.299
cAMP activity (∆pIC50 from EP4 WT) (EP4 S319A; single experiments 1st-3rd): -0.429 and -0.317 and -0.151
IC50 (EP4 V72A): 18200 nM
remaining activity at 100 µM (EP4 V72A; [7]): 12.5%
remaining activity at […] (EP4 V72A; [8]): 22.1%
remaining activity at […] (EP4 V72A; [9]): 49.5%
remaining activity at […] (EP4 V72A; [10]): 51.9%
remaining activity at 0.1585 µM (EP4 V72A; [11]): 46%
remaining activity at 0.03236 µM (EP4 V72A; [12]): 55.5%
remaining activity at 0.006457 µM (EP4 V72A; [13]): 65.3%
remaining activity at 0.001288 µM (EP4 V72A; [14]): 49%
cAMP activity (∆pIC50 from EP4 WT) (EP4 V72A; TG6-129, V72A, Mean): -0.291
IC50 (EP2 W186A): 2000 nM
remaining activity at 1 µM (EP2 W186A; [4]): 12.3%
remaining activity at 0.1 µM (EP2 W186A; [1]): 14.9%
remaining activity at 0.01 µM (EP2 W186A; 1 h, TG6-129 log([M]) -8, read-out: % cAMP activity (normalized to WT)): 13.9%
remaining activity at 0.001 µM (EP2 W186A; [5]): 12.1%
remaining activity at 0.0001 µM (EP2 W186A; [2]): 12.9%
remaining activity at 10 pM (EP2 W186A; [3]): 15.2%
remaining activity at 1 pM (EP2 W186A; [6]): 12.4%
cAMP activity (∆pIC50 from EP2 WT) (EP2 W186A; TG6-129, W186A, Mean): -1.790
